Article PMC5137965 (Future Science OA, 2016)

How the values were obtained:
[1] = Stock and working solution stability; format: physicochemical; conditions: for Short-term stability, %Stability: 8.46 h at room temperature; for Stock solution stability, %Stability: 21 days, stock solutions in methanol stored at refrigerator temperature 1–10°C; for working solutions found stable for: room temperature
Method: Separate stock solutions were used to prepare calibration curve (CC) standards and quality (QC) control samples. The prepared stock solutions were protected from light and stored in refrigerator between 1–10°C until use. A fresh working solution of IS (1500.00 ng/ml) was prepared everyday by taking appropriate dilution of the stock solution in methanol:water (50:50 v/v).
Stock solution stability of both analyte and internal standard was carried out for 21 days at refrigerated temperature (1–10°C). Short-term stability both analyte and internal standard was carried out for 8.46 h at room temperature.

[2] = cited from earlier work
[3] = Blood stability (sample collection process stability) at room temperature; format: in vitro ADME, human; conditions: 2.45 h at room temperature
[4] = Stability of spiked human plasma QC samples (bench top, freeze-thaw, autosampler, long-term); format: in vitro ADME; conditions: for Auto sampler stability (100.87 h), %Nominal, stability QC samples: processed samples
[5] = human plasma, low concentration QC

| Short-term stability, %Stability [1] | Stock solution stability, %Stability [1] | working solutions found stable for [1] | stock solution found stable for ([1]; stored in refrigerator between 1 and 10°C) | %Stability ([3]; HQC) | %Stability ([3]; LQC) | processed samples stable in auto sampler for ([4]; at 10°C) | Bench top stability during extraction (9.60 h), %Nominal, stability QC samples ([4]; high concentration QC) | bench top stability in matrix ([4]; human plasma, 6.15 h) | comparative freeze-thaw stability at the end of third freeze and thaw cycle ([4]; human plasma, below -15°C and below -50°C) | Freeze thaw stability (three freeze thaw cycles, below -50°C), %Nominal, stability QC samples ([4]; human plasma, high concentration QC) | Bench top stability in matrix (6.15 h), %Nominal, stability QC samples [4, 5] | Freeze thaw stability (three freeze thaw cycles, below -15°C), %Nominal, stability QC samples [4, 5] | Freeze thaw stability (three freeze thaw cycles, below -50°C), %Nominal, stability QC samples [4, 5] | Bench top stability during extraction (9.60 h), %Nominal, stability QC samples ([4]; low concentration QC) | Auto sampler stability (100.87 h), %Nominal, stability QC samples ([4]; high concentration QC) | Auto sampler stability (100.87 h), %Nominal, stability QC samples ([4]; low concentration QC) | Structure (SMILES) | permeability ([2]; inferred from almost complete oral absorption) | Tmax ([2]; oral) |
| --- | --- | --- | --- | --- | --- | --- | --- | --- | --- | --- | --- | --- | --- | --- | --- | --- | --- | --- | --- |
| 100.96% | 99.15% | 16 h | – | – | – | – | – | – | – | – | – | – | – | – | – | – | [2H]c1c([2H])c(C(=O)Nc2ccc(C)c(Nc3nccc(-c4cccnc4)n3)c2)c([2H])c([2H])c1CN1CCN(C)CC1 [imatinib-D4] | – | – |
| 101.88% | 101.63% | 16 h | 21 days | 99.27% | 100.72% | 100.87 h | 98.96% | 97.75 to 100.23% | 97.45 to 101.41% | 102.3% | 96.03% | 97.16% | 97.03% | 94.80% | 102.61% | 98.34% | Cc1ccc(NC(=O)c2ccc(CN3CCN(C)CC3)cc2)cc1Nc1nccc(-c2cccnc2)n1 [imatinib] | high permeability | 2 to 4 h |
